In patent US4649153A, “5,6-Dihydro-4H-cyclopenta(b)thiophene-6-carboxylic acids, preparation processes and medicines containing them” (Lipha, Lyonnaise Industrielle Pharmaceutique, priority 1984, dated 1987):
“Also recorded” adds a separate entry of the source. Like-named read-outs stand apart in the source and are kept apart here.

Columns and labels:
[1] = tested on: carrageenan edema; assay: Carrageenan edema test (Winter et al.), rat back paw, anti-inflammatory activity; format: in vivo, rats (male); settings: for ED30: Rattus norvegicus, read-out: Carrageenan edema ED 30
Method: Edema of a back paw was caused in male rats by subplantar injection of a 1% suspension of carrageenan in apyrogenic physiological solute. Measurement of the edema by plethysmography occurred 3 hours later. The products studied were administered orally 1 hour before the carrageenan injection. The protection conferred by the treatment was determined by calculation of ED 30 (dose moderating the edema 30% in relation to untreated animals).

[2] = tested on: UV erythema; assay: Protection from UV erythema (Winter et al.), early inflammation; format: in vivo, guinea pigs; settings: Cavia porcellus, read-out: Protection from UV ED 50
Method: White guinea pigs having their backs freshly depilated were radiated individually by exposure to the radiation of a UV lamp placed 25 cm above the animal's back for 1 min 30 sec. The zone to be radiated was delimited by a covering pierced with circular holes wrapping each animal. The erythema was visually marked 2 hours after exposure to radiation. The guinea pigs were treated orally with the test products 1 hour after exposure to UV.

[3] = Acute oral toxicity (LD50), mortality recorded 2 weeks later; settings: mouse, in vivo, Table III, Swiss mice
Method: Lethal doses 50 (LD50) were determined by oral administration in Swiss mice. Mortality was recorded 2 weeks later.

[4] = Table II, oral, 1 hour before carrageenan, rats, dose moderating edema 30%
[5] = Table II, oral, 1 hour after UV exposure, guinea pigs, dose reducing erythema 50%
[6] = Table I, oral, 1 hour before carrageenan, rats, edema measured 3 hours later, dose moderating edema 30%
[7] = Table I, oral, 1 hour after UV exposure, guinea pigs, erythema marked 2 hours after exposure, dose reducing erythema 50%

Compound	ED30 [1, 4] [mg/kg]	ED50 [2, 5] [mg/kg]	ED30 [1, 6] [mg/kg]	ED50 [2, 7] [mg/kg]	also measured
O=C(c1ccccc1)c1cc2c(s1)CCC2C(=O)O (stereo not shown) [2-Benzoyl-5,6-dihydro-4H cyclopenta[b]thiophene-4-carboxylic, reference compound]	> 30	> 50	–	–	–
CC(C)Cc1cc2c(s1)CCC2C(=O)O (stereo not shown) [2-Isobutyl-5,6-dihydro-4H cyclopenta[b]thiophene-4-carboxylic, reference compound]	> 30	> 50	–	–	–
CC(C)Cc1sc2c(c1C(=O)c1ccccc1)C(C(=O)O)CC2 (stereo not shown) [3-Benzoyl-2-isobutyl-5,6-dihydro-4Hcyclopenta[b]thio-phene-4-carboxylic acid, reference compound]	> 30	> 50	–	–	–
Cc1sc2c(c1C(=O)c1ccccc1)C(C(=O)O)CC2 (stereo not shown) [3-benzoyl-2-methyl-5,6-dihydro-4H-cyclopenta[b]thiophene-4-carboxylic acid, reference compound]	> 30	> 50	–	–	–
Cc1sc2c(c1C(=O)c1ccccc1)CCC2C(=O)O (stereo not shown) [Example 7, 3-Benzoyl-2-methyl-5,6-dihydro-4H-cyclopenta[b]thiophene-6-carboxylic acid]	–	0.4	0.7	0.4	Carrageenan edema ED 30 [1, 4]: 0.7 mg/kg; activity compared with Indomethacin and with isomeric 4-carboxylic acids (in words) ([1]; carrageenan edema, UV protection and Randall and Selitto tests): greater than that of Indomethacin; also recorded: considerably greater than that of 5,6-dihydro-4H-cyclopenta[b]thiophene-4-carboxylic isomeric acids; LD50 at 336 h [3]: 275 mg/kg
Cc1sc2c(c1C(=O)c1cccs1)CCC2C(=O)O (stereo not shown) [Example 10, 2-Methyl 3-(2-thenoyl)-5,6-dihydro-4H-cyclopenta[b]thiophene-6-carboxylic acid]	–	–	3	0.2	LD50 at 336 h [3]: 275 mg/kg
Cc1sc2c(c1C(=O)c1ccc(F)cc1)CCC2C(=O)O (stereo not shown) [Example 21, 3-(4-Fluorobenzoyl)-2-methyl-5,6-dihydro-4H-cyclopenta[b]thiophene-6-carboxylic acid]	–	–	2.4	0.4	–
Cc1sc2c(c1C(=O)c1ccc(N(C)C)cc1)CCC2C(=O)O (stereo not shown) [Example 27, 3-(4-Dimethylaminobenzoyl)-2-methyl-5,6-dihydro-4H-cyclopenta[b]thiophene-6-carboxylic acid]	–	–	1.3	0.6	–
CC(C)Cc1sc2c(c1C(=O)c1ccccc1)CCC2C(=O)O (stereo not shown) [Example 32, 3-Benzoyl-2-isobutyl-5,6-dihydro-4H-cyclopenta[b]thiophene-6-carboxylic acid]	–	–	> 50	> 50	–
CCc1sc2c(c1C(=O)c1ccccc1)CCC2C(=O)O (stereo not shown) [Example 38, 3-Benzoyl-2-ethyl-5,6-dihydro-4H-cyclopenta[b]thiophene-6-carboxylic acid]	–	–	6	2	–
COc1ccc2c(c1)c(CC(=O)O)c(C)n2C(=O)c1ccc(Cl)cc1 [INDOMETHACIN, 1-(4-chlorobenzoyl)-5-methoxy-2-methyl-3-indolylacetic acid, reference compound]	–	–	–	–	ED30 ([1]; po): 5 mg/kg; LD50 at 336 h [3]: 25 mg/kg; ED50 ([2]; po): 4.5 mg/kg
